System: human T cells
Assay: Treatment of human T cells with K884: central memory differentiation and cytokine production
Assay type: cell-based
Description: Calculate the specific cell lysis as follows: Specific cell lysis=((Sample−BF)/(AF−BF))×100 10) Flow Cytometry 1. Cell Activation • a. Wash cells with 1 ml of culture medium; • b. Centrifuge cells for 5 min at 300 g; • c. Resuspend cells in culture medium; • d. Prepare 2× solutions (negative control with only culture medium, Positive condition with 50 ng/mL of PMA and 500 ng/mL of lonomycin); • e. Plate 100 μL of cell suspension in 96 well plates (U-bottom); • f. Add 100 μL of 2× solutions in appropriate wells; • g. Incubate 4 hours at 37 C, 5% CO2. 2. Extracellular Staining • a. Record cell quantity transfers per tube; • b. Wash cells with 1 mL of PBS+2% FBS; • c. Centrifuge cells for 5 min at 300 g; • d. Empty tubes by inversion; • e. Add the antibodies for extracellular staining; • f. Incubate 20 min at 4° C.; • g. Wash cells with 1 mL of PBS+2% FBS; • h. Centrifuge cells for 5 min at 300 g; • i. Empty tubes by inversion; • j. Ressuspend cells in 100 μL fixation/permeabilisation buffer (eBioscience, #00-5223-56, 1 volume of concentrate buffer+3 volumes of diluent buffer) • k. Incubate 30 min at room temperature or overnight at 4° C. 3. Intracellular Staining • a. Wash cells with 1 mL of permeabilization buffer (eBioscience, #00-8333-56, dilution 1/10 in ddH2O); • b. Centrifuge cells for 5 min at 300 g; • c. Empty tubes by inversion; • d. Add the intracellular antibodies; • e. Incubate 1 hour at 4° C.; • f. Wash cells with 1 mL of permeabilization buffer; • g. Centrifuge cells for 5 min at 300 g; • h. Empty tubes by inversion; • i. Keep tubes at 4° C. shelter from light 4. Human PBMC Isolation by Ficoll • a. Prepare 50 ml tubes; • b. Transfer blood into 50 ml tubes, with maximum of 17.5 ml per tube; • c. Add sterile PBS to dilute blood to reach 35 ml; • d. Use a dropped-in Pasteur pipet used as a tunnel; add 15 ml of Ficoll; • e. Gently install the tubes and centrifuge at 1000 g for 20 min, RT without brakes; • f. Using a 25 ml pipet, harvest the interface ring of PBMC without too much Ficoll and transfer into a 50 ml tube (maximum 15 ml per tube); • g. […]

[1] = 14 days with IL-7 and IL-15, restimulated with PMA and Ionomycin 4 hours

For `CCOC(=O)c1cc2cc(C(F)(F)P(=O)(O)O)c(Br)cc2s1` [Ex. 1, ((6-BROMO-2-(ETHOXYCARBONYL)BENZO[B]THIOPHEN-5-YL)DIFLUOROMETHYL)PHOSPHONATE], the TNFα secretion [1] was “enhancement of the proinflammatory cytokine TNFα secretion”, the “production of IFNγ” value [1] was “production of IFNγ is maintained” and the “response of peripheral blood human CD8 T cells to treatment” value (human CD8 T cells compared to mouse CD8 T cells) was “respond in equivalent manner to mouse CD8 T cells”.

Source: patent US11597739B2, “Enhancing CD8+ T cells for adoptive T cell therapy by inhibiting PTPN1 (PTP1B) and PTPN2 (TC-PTP)” (The Royal Institution for the Advancement of …, priority 2017, dated 2023)
